We go through 16 molecules from patent US9713651B2, “Compositions, methods, and systems for the synthesis and use of imaging agents” (Lantheus Medical Imaging, Inc., priority 2012, dated 2017).

The subject of series [1] is hepatocytes. In words: Metabolic profiling of imaging agents in cryopreserved hepatocytes (HPLC with radiodetection). It counts as in vitro ADME. Conditions: hepatocytes 1×10^6 cells/mL, 37° C./5% CO2; species and incubation time not given. On the procedure: Cryopreserved hepatocytes were purchased from Celsis/In Vitro Technologies, Inc. (Baltimore, Md.) and stored at −150° C. prior to use. Multiple lots of hepatocytes for human (mixed sexes 5-donor pool), primate (male, rhesus monkey), dog (male, beagle), rabbit (male, New Zealand white) and rat (male, Sprague-Dawley) were used. On the day of the study, hepatocytes in cryopreserved vials were vented to release any liquid N2 then placed into a 37° C. water bath for 75-90 seconds to thaw. The hepatocytes were transferred into pre-warmed KHB and centrifuged for 5 min at 50×g. The supernatant was discarded and the hepatocytes re-suspended in KHB at a concentration of 1×10^6 cells/mL. Cell viability was confirmed by Trypan blue exclusion.
Test compounds were incubated in hepatocytes (1×10^6 cells/mL; 0.5 mL) were incubated for 0, 15, 30, 60 or 180 min at 37° C./5% CO2 then transferred directly into acetonitrile (1.0 mL), vortexed for 30 s and centrifuged at 2500×g for 20 min. The supernatant was then transferred to a new centrifuge tube, acetonitrile evaporated under a stream of nitrogen in a heating block at 37° C. and, following re-constitution in water, assayed by HPLC with radiodetection.
Extracted samples and standards were analyzed on an Agilent 1100 HPLC (Agilent Technologies, Burlington, Mass.) using a Phenomenex Luna C18 column (5μ; 4.6×150 mm), maintained at ambient temperature (25° C.), and a flow rate of 1.0 mL/min. Mobile phase A contained 0.1% formic acid in water, and mobile phase B contained 0.1% formic acid in acetonitrile. A linear gradient from 5 to 90% B over 15 min was used for elution. A 5 min post-time of 5% B was used to re-equilibrate the column. Radioactive products were recorded using in-line γ- or β-flow detectors (INUS, Tampa, Fla.).

Series [2] is described as follows: Tissue distribution of 18F imaging agents in rats. It counts as in vivo, Male Sprague Dawley rats. Conditions: rat, iv tail vein ~15 μCi, ± SEM; for Blood, imaging agent distribution at 15 min / Brain, imaging agent distribution at 15 min / Femur, imaging agent distribution at 15 min / Heart, imaging agent distribution at 15 min / Kidney, imaging agent distribution at 15 min / Liver, imaging agent distribution at 15 min / Lung, imaging agent distribution at 15 min / Muscle, imaging agent distribution at 15 min / Pancreas, imaging agent distribution at 15 min / Spleen, imaging agent distribution at 15 min: 15 min post injection; for Blood, imaging agent distribution at 60 min / Brain, imaging agent distribution at 60 min / Femur, imaging agent distribution at 60 min / Heart, imaging agent distribution at 60 min / Kidney, imaging agent distribution at 60 min / Liver, imaging agent distribution at 60 min / Lung, imaging agent distribution at 60 min / Muscle, imaging agent distribution at 60 min / Pancreas, imaging agent distribution at 60 min / Spleen, imaging agent distribution at 60 min: 60 min post injection. On the procedure:
Anesthetized (sodium pentobarbital at 50 mg/kg, ip or isoflurane gas inhalation) Male Sprague Dawley rats (250-350 g) received an iv injection of the imaging agent (˜15 μCi) via the tail vein. At 15 or 60 min post injection, the animals were euthanized and the required tissue samples harvested. All samples were then weighed and counted for radioactivity (Wallac Wizard 1480 or Packard Cobra II Autogamma); regional tissue uptake of the imaging agent was thus expressed as a percentage of the total injected dose per gram of tissue (% ID/g).
The generic structure depicted below highlights specific structural features evaluated during distribution experiments.

Consider `CC(C)n1ncc(OCc2ccc(COCCF)cc2)c(Cl)c1=O` [Example 1, 4-chloro-5-((4-((2-fluoroethoxy)methyl)benzyl)oxy)-2-isopropylpyridazin-3(2H)-one], for which the “% Parent Remaining” value in series [1] worked out at 20%.
As to `[2H]C([2H])(OCCF)c1ccc(COc2cnn(C(C)(C)C)c(=O)c2Cl)cc1` [Example 9, 2-(tert-butyl)-4-chloro-5-((4-((2-fluoroethoxy)-d2-methyl)benzyl)oxy)pyridazin-3(2H)-one], the “% Parent Remaining” value in series [1] is given as 73%.
On to `CC(OCCF)c1ccc(COc2cnn(C(C)(C)C)c(=O)c2Cl)cc1` (stereo not shown) [Example 16, 2-(tert-butyl)-4-chloro-5-((4-(1-(2-fluoroethoxyl)ethyl)benzyl)oxy)pyridazin-3(2H)-one], for which the “% Parent Remaining” value in series [1] is recorded as 20%.
Consider `CC(C)(C)n1ncc(OCc2ccc(OCCCF)c(Cl)c2)c(Cl)c1=O` [Example 25, 2-(tert-butyl)-4-chloro-5-((3-chloro-4-(3-fluoropropoxyl)benzyl)oxy)pyridazin-3(2H)-one], for which the “% Parent Remaining” value in series [1] was 71%.
On the same count and under the same terms, for `CC(C)(C)n1ncc(OCc2cccc(COCCF)c2)c(Cl)c1=O` [Example 35, 2-(tert-butyl)-4-chloro-5-((3-((2-fluoroethoxy)methyl)benzyl)oxy)pyridazin-3(2H)-one] the value was 30%; for `Cc1c(OCc2ccc(COCCF)cc2)cnn(C(C)(C)C)c1=O` [Example 40], 34%.
As for `CC(C)(C)n1ncc(OCc2ccc(C#CCCF)cc2)c(Cl)c1=O` [Example 43, 2-(tert-butyl)-4-chloro-5-((4-(4-fluorobut-1-yn-1-yl)benzyl)oxy)pyridazin-3(2H)-one], the “% Parent Remaining” value in series [1] is listed as 63%.
The same measure, in the same setting: the result for `CC(C)(C)n1ncc(OCc2ccc(C(=O)OCCF)cc2)c(Cl)c1=O` [Example 45, 2-fluoroethyl 4-(((1-(tert-butyl)-5-chloro-6-oxo-1,6-dihydropyridazin-4-yl)oxy)methyl)benzoate] reads 19%; that for `CC(C)(C)n1ncc(OCc2ccc(-c3cnc(F)nc3)cc2)c(Cl)c1=O` [Example 48C, 2-(tert-butyl)-4-chloro-5-((4-(2-fluoropyrimidin-5-yl)benzyl)oxy)pyridazin-3(2H)-one], 95%; that for `CC(C)(C)n1ncc(OCc2ccc(C(=O)OCCCF)cc2)c(Cl)c1=O` [Example 57B, 3-fluoropropyl 4-(((1-(tert-butyl)-5-chloro-6-oxo-1,6-dihydropyridazin-4-yl)oxy)methyl)benzoate], 31%.
The same measure, in the same setting: the result for `CC(C)(C)n1ncc(CCc2ccc(COCCF)cc2)c(Cl)c1=O` [Example 61] reads 6%.
Turning to `CC(C)(C)n1ncc(OCc2ccc([Si](F)(C(C)(C)C)C(C)(C)C)cc2)c(Cl)c1=O` [Example 62B, 2-(tert-butyl)-4-chloro-5-((4-(di-tert-butylfluorosilyl)benzyl)oxy)pyridazin-3 (2H)-one], in series [1], the “% Parent Remaining” value is 98%.
As for `CC(C)(C)n1ncc(OCc2ccc(-c3cnc(F)nc3)cc2)c(Cl)c1=O` [Example 67L], in series [2], the “Blood, imaging agent distribution at 15 min” value (“Blood … at 15 min” below) came out at 0.14 ± 0.01 % ID/g; the “Brain, imaging agent distribution at 15 min” value (from here on “Brain … at 15 min”) is 0.30 ± 0.05 % ID/g; the “Femur, imaging agent distribution at 15 min” value (shortened to “Femur … at 15 min”) was found to be 0.31 ± 0.01 % ID/g; the “Heart, imaging agent distribution at 15 min” value (“Heart … at 15 min” below) is 1.19 ± 0.18 % ID/g. In series [2], the “Kidney, imaging agent distribution at 15 min” value (from here on “Kidney … at 15 min”) stood at 0.65 ± 0.07 % ID/g; the “Liver, imaging agent distribution at 15 min” value (“Liver … at 15 min” below) is on record as 1.71 ± 0.36 % ID/g; the “Lung, imaging agent distribution at 15 min” value (from here on “Lung … at 15 min”) is given as 0.29 ± 0.03 % ID/g; the “Muscle, imaging agent distribution at 15 min” value (from here on “Muscle … at 15 min”) came out at 0.27 ± 0.02 % ID/g. In addition, in series [2], the “Pancreas, imaging agent distribution at 15 min” value is given as 0.36 ± 0.06 % ID/g; the “Spleen, imaging agent distribution at 15 min” value (“Spleen … at 15 min” below) was 0.18 ± 0.01 % ID/g; the “Blood, imaging agent distribution at 60 min” value (shortened to “Blood … at 60 min”) was 0.10 ± 0.02 % ID/g; the “Brain, imaging agent distribution at 60 min” value (shortened to “Brain … at 60 min”) is recorded as 0.22 ± 0.03 % ID/g. Moreover, in series [2], the “Femur, imaging agent distribution at 60 min” value (shortened to “Femur … at 60 min”) is 0.78 ± 0.15 % ID/g; the “Heart, imaging agent distribution at 60 min” value (shortened to “Heart … at 60 min”) is listed as 0.62 ± 0.12 % ID/g; the “Kidney, imaging agent distribution at 60 min” value (shortened to “Kidney … at 60 min”) came to 0.40 ± 0.08 % ID/g; the “Liver, imaging agent distribution at 60 min” value (“Liver … at 60 min” below) was 2.06 ± 0.27 % ID/g. Further, in series [2], the “Lung, imaging agent distribution at 60 min” value (“Lung … at 60 min” for short) came out at 0.21 ± 0.02 % ID/g; the “Muscle, imaging agent distribution at 60 min” value (“Muscle … at 60 min” for short) turned out to be 0.20 ± 0.06 % ID/g; the “Pancreas, imaging agent distribution at 60 min” value was found to be 0.33 ± 0.08 % ID/g; the “Spleen, imaging agent distribution at 60 min” value (shortened to “Spleen … at 60 min”) came out at 0.11 ± 0.02 % ID/g.
`CC(C)(C)n1ncc(CCc2ccc(COCCF)cc2)c(Cl)c1=O` [Example 67M]: in series [2], the “Blood … at 15 min” value worked out at 0.53 ± 0.13 % ID/g; the “Brain … at 15 min” value was 0.55 ± 0.31 % ID/g; the “Femur … at 15 min” value is 0.52 ± 0.19 % ID/g; the “Heart … at 15 min” value amounted to 2.54 ± 0.20 % ID/g. For the same molecule, in series [2], the “Kidney … at 15 min” value is on record as 0.79 ± 0.07 % ID/g; the “Liver … at 15 min” value is 0.96 ± 0.10 % ID/g; the “Lung … at 15 min” value is on record as 0.97 ± 0.13 % ID/g; the “Muscle … at 15 min” value turned out to be 0.24 ± 0.04 % ID/g. Also, in series [2], the “Spleen … at 15 min” value turned out to be 0.35 ± 0.05 % ID/g; the “Blood … at 60 min” value came to 0.73 ± 0.16 % ID/g; the “Brain … at 60 min” value turned out to be 2.33 ± 0.12 % ID/g; the “Femur … at 60 min” value is 0.43 ± 0.03 % ID/g. In series [2], the “Heart … at 60 min” value came out at 0.55 ± 0.06 % ID/g; the “Kidney … at 60 min” value stood at 0.43 ± 0.04 % ID/g; the “Liver … at 60 min” value was found to be 0.43 ± 0.04 % ID/g; the “Lung … at 60 min” value was found to be 1.03 ± 0.22 % ID/g. Moreover, in series [2], the “Muscle … at 60 min” value amounted to 0.31 ± 0.04 % ID/g and the “Spleen … at 60 min” value came to 0.26 ± 0.03 % ID/g.
For the molecule `CC(C)(C)n1ncc(OCc2ccc([Si](F)(C(C)(C)C)C(C)(C)C)cc2)c(Cl)c1=O` [Example 67N], in series [2], the “Blood … at 15 min” value was 0.22 ± 0.04 % ID/g; the “Brain … at 15 min” value is given as 0.03 ± 0.00 % ID/g; the “Femur … at 15 min” value amounted to 0.14 ± 0.02 % ID/g; the “Heart … at 15 min” value came out at 0.65 ± 0.09 % ID/g. Also, in series [2], the “Kidney … at 15 min” value is 0.51 ± 0.09 % ID/g; the “Liver … at 15 min” value stood at 4.91 ± 0.49 % ID/g; the “Lung … at 15 min” value came out at 1.31 ± 0.24 % ID/g; the “Muscle … at 15 min” value is recorded as 0.06 ± 0.00 % ID/g. In series [2], the “Spleen … at 15 min” value is 3.47 ± 0.80 % ID/g.
For `CC(C)(C)n1ncc(OCc2ccc(Oc3cccnc3F)cc2)c(Cl)c1=O` [Example 67O], in series [2], the “Blood … at 15 min” value was determined as 0.07 ± 0.03 % ID/g; the “Brain … at 15 min” value amounted to 0.36 ± 0.04 % ID/g; the “Femur … at 15 min” value was 0.27 ± 0.02 % ID/g; the “Heart … at 15 min” value was found to be 2.68 ± 0.35 % ID/g. Also, in series [2], the “Kidney … at 15 min” value was 1.35 ± 0.14 % ID/g; the “Liver … at 15 min” value is on record as 0.99 ± 0.06 % ID/g; the “Lung … at 15 min” value worked out at 0.37 ± 0.15 % ID/g; the “Muscle … at 15 min” value is listed as 0.28 ± 0.02 % ID/g. In series [2], the “Pancreas, imaging agent distribution at 15 min” value stood at 0.55 ± 0.10 % ID/g; the “Spleen … at 15 min” value is recorded as 0.31 ± 0.09 % ID/g; the “Blood … at 60 min” value amounted to 0.03 ± 0.00 % ID/g; the “Brain … at 60 min” value is recorded as 0.36 ± 0.03 % ID/g. Besides, in series [2], the “Femur … at 60 min” value is 0.37 ± 0.05 % ID/g; the “Heart … at 60 min” value is recorded as 2.46 ± 0.27 % ID/g; the “Kidney … at 60 min” value worked out at 0.83 ± 0.08 % ID/g; the “Liver … at 60 min” value came out at 0.83 ± 0.17 % ID/g. Moreover, in series [2], the “Lung … at 60 min” value was 0.15 ± 0.03 % ID/g; the “Muscle … at 60 min” value is 0.39 ± 0.04 % ID/g; the “Pancreas, imaging agent distribution at 60 min” value was found to be 0.38 ± 0.02 % ID/g; the “Spleen … at 60 min” value is listed as 0.11 ± 0.02 % ID/g.
